# Assay results published in US11141397B2, “Composition for improving efficacy of L-DOPA treatment” (priority 2017, dated 2021).
# Entries after “also recorded” stand apart in the source; their conditions may differ.
# Test system: intrastriatal rotenone mouse model for PD
# Experiment: Rotarod test (motor function) in the intrastriatal rotenone model
# Format: in vivo, C57BL/6J mice
# Protocol: Forty-eight seven week-old C57BL/6J mice (Charles River, The Netherlands) were housed at room temperature under a 12 h light/dark cycle. Food and water were provided ad libitum. […] Mice underwent stereotaxic surgery under isoflurane anesthesia: a hole was drilled in the skull and a cannula inserted in the right striatum at the following stereotaxic coordinates: AP +0.4, ML -2.0 from bregma, and DV -3.3 below dura. Rotenone-treated animals were injected with 5.4 μg of freshly prepared rotenone solution (dissolved in 2 μl DMSO). Sham-treated animals were injected with the vehicle (2 μl DMSO). 93 days after surgery the mice were euthanized by decapitation. The motor performance of each mouse was assessed in the Rotarod test as described in Inden et al. “Neurodegeneration of mouse nigrostriatal dopaminergic system induced by repeated oral administration of rotenone is prevented by 4-phenylbutyrate, a chemical chaperone” J. […] Briefly, mice were placed on an accelerating rod with speeds starting with 2 rpm and gradually increasing to 20 rpm. Time to first fall was recorded for a maximum of 300 s. […] Animals were divided into four groups of 12 animals (Sham+CD, Sham+AD, Rotenone+CD, and Rotenone+AD). […] The AD also contained supplementary amounts of choline, phospholipids, selenium, folic acid, and vitamins B6, B12, C, D, and E, above standard levels in the control diet. […] The rotarod test was started 1.5h after benserazide administration and performed as described below. […] ANOVAs were followed by a Tukey's multiple comparison test when appropriate. For the rotarod test performance over time, data were analyzed with a general linear model repeated measure ANOVA with the within subject factor time and the between subject factors surgery and diet. […] Analyses were performed using SPSS 22.0.
smiles,measurement,setting,value
"N[C@@H](Cc1ccc(O)c(O)c1)C(=O)O [levodopa, L-3,4-di-hydroxy-phenylalanine]",rotarod performance (time on rotarod),"days 26 and 27 after surgery, 60 minutes after 20 mg/kg oral levodopa vs vehicle, before dietary intervention, F(1,92)=24.77, p<0.0001",overall effect of levodopa on the animals' motor performances
same,effect on rotenone-induced motor dysfunction (rotarod),"overall effect, day 65-93, FIG. 1, three-way ANOVA",there was an effect; also recorded: alleviated rotenone-induced motor dysfunction
same,ability to remain on the rod,"rotenone-injected mice on AD, levodopa 10 or 20 mg/kg vs saline or 5 mg/kg, day 65-93, p<0.001",better ability to remain on the rod
same,rotarod performance,"rotenone-treated animals on CD, levodopa 20 mg/kg vs 5 mg/kg or saline, day 65-93, p<0.01",performed significantly better
